{"source": "paper PMC9863109", "about": "(Viruses, 2023)", "key": {"ICR outbred mice [1]": {"tested_on": "ICR outbred mice", "conditions": "mouse, in vivo"}, "ICR outbred mice [2]": {"tested_on": "ICR outbred mice", "conditions": "mouse, in vivo", "remark": "listed apart in the source"}, "Wistar rats [3]": {"tested_on": "Wistar rats", "conditions": "rat, in vivo"}, "Wistar rats [4]": {"tested_on": "Wistar rats", "conditions": "rat, in vivo", "remark": "listed apart in the source"}, "[5]": {"conditions": "mouse, in vivo"}, "ectromelia virus [6]": {"tested_on": "ectromelia virus", "conditions": "mouse, in vivo, po; cited from earlier work"}, "[7]": {"tested_on": "monkeypox virus strain V79-1-005", "conditions": "mouse, in vivo, po; cited from earlier work"}, "[8]": {"tested_on": "Ind-3a variola virus strain", "conditions": "mouse, in vivo, po; cited from earlier work"}, "[9]": {"tested_on": "monkeypox virus strain V79-1-005", "conditions": "in vivo, po; cited from earlier work"}, "ectromelia virus [10]": {"tested_on": "ectromelia virus", "conditions": "mouse, in vivo; cited from earlier work"}, "monkeypox virus": {"tested_on": "monkeypox virus", "conditions": "cynomolgus monkey, in vivo; cited from earlier work"}, "in vivo": {"assay": "in vivo", "conditions": "both, ICR, mouse"}, "[11]": {"conditions": "cynomolgus monkey, in vivo; cited from earlier work"}, "[12]": {"conditions": "mouse, in vivo; cited from earlier work"}, "animals": {"tested_on": "animals", "conditions": "in vivo, po; cited from earlier work"}, "BALB/c mice": {"tested_on": "BALB/c mice", "conditions": "mouse, in vivo; cited from earlier work"}, "NZW rabbits": {"tested_on": "NZW rabbits", "conditions": "rabbit, in vivo; cited from earlier work"}, "cynomolgus monkeys": {"tested_on": "cynomolgus monkeys", "conditions": "cynomolgus monkey, in vivo; cited from earlier work"}}, "data": [{"smiles": "O=C(NNC(=O)C1C2C=CC(C3CC23)C1C(=O)O)c1ccc(C(F)(F)F)cc1", "note": "(centres unmarked) [NIOCH-14, 7-({[(4-trifluoromethyl)phenyl]formohydrazido}carbonyl)tricyclo[3.2.2.0^2,4]non-8-en-6-carboxylic acid]", "values": [{"measurement": "hazard class according to GOST 12.1.007-76", "setting": "ICR outbred mice [1]", "value": "low-hazard compound"}, {"measurement": "macroscopic pathomorphological changes in organs", "setting": "ICR outbred mice [1]", "value": "no macroscopic pathomorphological changes"}, {"measurement": "WBC differential", "setting": "ICR outbred mice [2]", "value": "remained unchanged"}, {"measurement": "effect on animals' appearance and behavior", "setting": "ICR outbred mice [2]", "value": "no significant effect"}, {"measurement": "increase of platelet count vs. control group 1", "setting": "ICR outbred mice [2]", "value": 28, "unit": "%"}, {"measurement": "reduction of WBC count vs. control group 1", "setting": "ICR outbred mice [2]", "value": 23, "unit": "%"}, {"measurement": "changes in hematological parameters", "setting": "Wistar rats [3]", "value": "no significant changes"}, {"measurement": "effect on animals' appearance and behavior", "setting": "Wistar rats [3]", "value": "no significant effect"}, {"measurement": "animal death", "setting": "Wistar rats [4]", "value": "did not cause animal death"}, {"measurement": "effect on hematological parameters", "setting": "Wistar rats [4]", "value": "no significant effect"}, {"measurement": "Absolute bioavailability Fabs", "setting": "[5]", "value": 22.8, "unit": "%"}, {"measurement": "time of maximum concentration of ST-246 in serum", "setting": "[5]", "value": 15, "unit": "min"}, {"measurement": "visible adverse reactions to i/v administration", "setting": "[5]", "value": "no visible adverse reactions"}, {"measurement": "50% effective dose", "setting": "ectromelia virus [6]", "value": 3.59, "unit": "µg/g"}, {"measurement": "virus production in the lungs", "setting": "[7]", "value": "significantly reduced virus production in the lungs"}, {"measurement": "number of infected mice and virus production in the lungs", "setting": "[8]", "value": "significantly reduced"}, {"measurement": "signs of disease", "setting": "[9]", "value": "no signs of disease"}]}, {"smiles": "O=C(NN1C(=O)C2C3C=CC(C4CC34)C2C1=O)c1ccc(C(F)(F)F)cc1", "note": "(centres unmarked) [ST-246, N-{3,5-dioxo-4-azatetracyclo[5.3.2.0^2,6.0^8,10]dodec-11-en-4-yl}-4-(trifluoromethyl)benzamide]", "values": [{"measurement": "visible adverse reactions to i/v administration", "setting": "[5]", "value": "no visible adverse reactions"}, {"measurement": "50% effective dose", "setting": "ectromelia virus [6]", "value": 5.08, "unit": "µg/g"}, {"measurement": "dose of optimal effectiveness", "setting": "ectromelia virus [10]", "value": 100, "unit": "µg/g"}, {"measurement": "effective dose", "setting": "monkeypox virus", "value": 3, "unit": "µg/g"}, {"measurement": "Tmax", "setting": "in vivo; iv", "value": 0.25, "unit": "h"}, {"measurement": "half-life", "setting": "in vivo; iv", "value": 2, "unit": "h"}, {"measurement": "Cmax", "setting": "in vivo; iv, Cmax", "value": 13200, "unit": "ng/mL"}, {"measurement": "Cmax", "setting": "in vivo; iv, maximum concentration (Cmax) of ST-246 in serum", "value": 13200, "unit": "ng/mL"}, {"measurement": "Tmax", "setting": "in vivo; po", "value": 3, "unit": "h"}, {"measurement": "bioavailability", "setting": "in vivo; po", "value": 12.1, "unit": "%"}, {"measurement": "half-life", "setting": "in vivo; po", "value": 3.4, "unit": "h"}, {"measurement": "Cmax", "setting": "in vivo; po, Cmax", "value": 15500, "unit": "ng/mL"}, {"measurement": "Cmax", "setting": "in vivo; po, maximum concentration (Cmax) of ST-246 in serum", "value": 15500, "unit": "ng/mL"}, {"measurement": "absolute oral bioavailability (Fabs)", "setting": "[11]", "value": "31-77%"}, {"measurement": "T1/2", "setting": "[12]", "value": 2.2, "unit": "h"}, {"measurement": "Tmax in serum", "setting": "[12]", "value": 4.5, "unit": "h"}, {"measurement": "plasma Cmax", "setting": "[12]", "value": 44000, "unit": "ng/mL"}, {"measurement": "animal death", "setting": "animals", "value": "did not cause death"}, {"measurement": "disorders or damage in the animals", "setting": "BALB/c mice", "value": "no disorders or damage"}, {"measurement": "pathological effects", "setting": "NZW rabbits", "value": "No pathological effects"}, {"measurement": "pathological processes", "setting": "cynomolgus monkeys", "value": "did not cause any pathological processes"}]}]}
